# System: HeLa-Luc-Cas9 cells
# Assay: Kinetic assay of sgRNA and siRNA delivery (luciferase expression over time)
# Assay type: cell-based
# Description: The kinetics of luciferase expression after silencing/editing by siRNA and sgRNA were determined in HeLa-Luc-Cas9 cells. For time points <48 h, ZNPs encapsulating sgRNA or siRNA were delivered to HeLa-Luc-Cas9 cells in 96-well plates at a density of 5K cells per well. After 0.5, 1, 2, 4, 11, 20, 30 and 44 h time point, the cell viability and luciferase expression were determined by the One-Glow+Tox assay. For longer time points, cells were treated in 6-well plates. Beginning at the 2 day time point, cells were aspirated, washed with 1×PBS, trypsinized in 200 μL trypsin and re-suspended in 1800 μL medium. 1 mL of each cell suspension was added to a fresh 6-well plate containing 1 mL DMEM (2 mL total) and returned to the incubator. Of the remaining cell suspension, 50 μL was transferred to a 96-well white-opaque plate (10 wells per sample). Cell viability was determined using the Cell-Titer Glo assay normalized to untreated cells, while relative luciferase expression was determined using the One-Glo assay and normalized against control (siCtrl or sgCtrl). Data was plotted as an average of 5 measurements+/−standard deviation.
compound,measurement,setting,value
CCCCCCCCC(O)CN(CCC(=O)NCC[N+](C)(C)CCCS(=O)(=O)[O-])CCN(CCN(CC(O)CCCCCCCC)CC(O)CCCCCCCC)CCN(CC(O)CCCCCCCC)CC(O)CCCCCCCC (stereo not shown) [ZA3-Ep10],decrease of luciferase expression,"sgLuc, 20 h",40%
same,decrease of luciferase expression,"sgLuc, after 2 days",95%
same,remaining luciferase expression,"sgLuc, persisted throughout the assay (9 days)",5%
same,time luciferase remained low,siLuc,about 3 days
same,time until protein expression reached baseline level,"siLuc, after transfection",6 days
same,luciferase silenced,"siLuc, by 20 h",92%
same,decrease of luciferase expression,"siLuc, within the first 4 h",40%

# From US11685710B2, “Cationic sulfonamide amino lipids and amphiphilic zwitterionic amino lipids” (The Board of Regents of the University of Texas System, priority 2016, dated 2023)
